Converted amounts (≈) assume the structure as drawn. “Also recorded” adds a separate entry of the source.
Key:
[1] = Metabolic stability in human liver microsomes with NADPH generating system; type: in vitro ADME; conditions: for Substrate remaining (%) / Substrate loss (%) / microsomal CLint at 1 uM / half-life at 1 uM: 1 μM substrate; for microsomal CLint at 1 uM: read-out: Estimated in vitro intrinsic clearance (μL/min/mg protein); for half-life at 1 uM: read-out: Half-life estimated from single exponential decay; for Metabolic stability (in words): substrate in the presence of human liver microsomes
Procedure: The compound of Formula I (Compound 10) (1 uM) and ivacaftor (1 uM) were incubated with human liver microsomes (1 mg/mL protein/mL) in the presence of NADPH generating system (NADP (1 mM, ph7, glucose-6-phosphate (5 mM ph 7.4) and glucose-6-phosphate dehydrogenase (1 Unit/mL) for 0, 30, 60, and 120 minutes. Remaining substrate was measured by LC-MS/MS. Concentration of the test article was converted to percent drug remaining relative to the concentration of the test article at Time Zero.

[2] = Solubility by nephelometry (turbidity) in HEPES-buffered physiological saline with 0.3% DMSO; type: physicochemical; conditions: HB-PS with 0.3% DMSO; for solubility: HEPES-buffered physiological saline with 0.3% DMSO, aqueous buffer, kinetic from dmso stock, interpolated from solubility and turbidity plots, read-out: Solubility limit
Procedure: Solubility of the compound of Formula I (Compound 10) and ivacaftor was evaluated in HEPES-buffered physiological saline solution (HB-PS) with 0.3% DMSO. Solubility was measured as absence of turbidity using microparticualtes light-scattering technology in nephelometer and output expressed as nephelometry turbidity units (NTU). The HEPES buffer with 0.3% DMSO was the media used for the Ussing Chamber assays as described below. Concentrations of Compound 10 and ivacaftor tested in duplicate were 0, 0.01, 0.03, 0.1, 0.3, 1, 3, 10, 30 μM. The NIST traceable reference standard at 0, 0.2, 0.6 and 1 NTU were measured in duplicate as a reference standard for turbidity. The NTU values were plotted against the concentrations of Compound 10 and ivacaftor.

F508del CFTR = molecular target: T1, F508del CFTR (Homo sapiens, UniProt P13569, DEL508-508); experiment: CFTR potentiator activity, Ussing chamber assay in primary bronchial epithelia (CFhBE); type: cell-based
T1 construct: human primary bronchial epithelia obtained from donors with the homozygous F508del CFTR missense mutation (CFhBE); endogenous in cells; host or cells: human primary bronchial epithelial cells (CFhBE) from donors homozygous for F508del
T1 sequence (P13569 with tags, fused parts or gaps DEL508-508): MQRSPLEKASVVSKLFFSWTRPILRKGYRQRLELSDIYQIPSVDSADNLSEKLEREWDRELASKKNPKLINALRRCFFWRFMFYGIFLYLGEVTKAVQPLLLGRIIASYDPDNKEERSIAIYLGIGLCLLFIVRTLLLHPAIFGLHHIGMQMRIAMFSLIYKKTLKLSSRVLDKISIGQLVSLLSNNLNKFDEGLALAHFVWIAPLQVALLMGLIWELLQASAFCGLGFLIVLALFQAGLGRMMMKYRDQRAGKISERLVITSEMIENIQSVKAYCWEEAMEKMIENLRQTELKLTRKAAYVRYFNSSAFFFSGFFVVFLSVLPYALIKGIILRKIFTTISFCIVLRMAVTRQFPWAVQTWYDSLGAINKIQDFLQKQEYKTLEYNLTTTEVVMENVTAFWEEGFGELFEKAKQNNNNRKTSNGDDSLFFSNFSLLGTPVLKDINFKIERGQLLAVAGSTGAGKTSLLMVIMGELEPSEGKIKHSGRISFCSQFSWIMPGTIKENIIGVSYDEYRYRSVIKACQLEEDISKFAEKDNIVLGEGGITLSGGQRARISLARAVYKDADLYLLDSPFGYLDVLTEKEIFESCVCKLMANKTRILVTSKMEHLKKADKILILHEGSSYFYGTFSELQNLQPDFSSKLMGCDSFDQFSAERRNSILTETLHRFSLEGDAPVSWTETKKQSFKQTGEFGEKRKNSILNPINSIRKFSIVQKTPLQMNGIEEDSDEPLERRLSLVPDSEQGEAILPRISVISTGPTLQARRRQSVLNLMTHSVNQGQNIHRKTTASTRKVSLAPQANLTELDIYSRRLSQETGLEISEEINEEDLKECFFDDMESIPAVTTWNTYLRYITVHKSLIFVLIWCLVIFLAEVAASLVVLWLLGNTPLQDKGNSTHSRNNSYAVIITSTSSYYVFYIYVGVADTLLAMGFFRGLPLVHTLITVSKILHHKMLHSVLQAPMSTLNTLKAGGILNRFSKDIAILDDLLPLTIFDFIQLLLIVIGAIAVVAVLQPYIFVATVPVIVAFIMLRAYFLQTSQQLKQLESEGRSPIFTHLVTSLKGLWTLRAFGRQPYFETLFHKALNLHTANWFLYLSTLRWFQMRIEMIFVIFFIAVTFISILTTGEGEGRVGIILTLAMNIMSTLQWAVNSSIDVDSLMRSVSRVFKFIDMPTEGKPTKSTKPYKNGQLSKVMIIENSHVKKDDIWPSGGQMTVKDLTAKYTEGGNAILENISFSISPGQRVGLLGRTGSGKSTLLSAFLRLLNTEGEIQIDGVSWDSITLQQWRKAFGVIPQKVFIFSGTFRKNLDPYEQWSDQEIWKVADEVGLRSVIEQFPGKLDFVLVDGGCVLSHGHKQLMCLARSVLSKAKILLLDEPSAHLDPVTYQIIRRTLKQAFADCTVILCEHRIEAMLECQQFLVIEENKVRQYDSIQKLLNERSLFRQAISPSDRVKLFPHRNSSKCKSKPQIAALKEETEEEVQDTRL
Procedure: Chloride ion channel potentiator activity of the compound of Formula I (Compound 10) and ivacaftor was evaluated in monlayer cultures of human primary bronchial epithelia obtained from donors with the homozygous F508del CFTR missense mutation (CFhBE) using Ussing assay technology.
The Ussing chamber assay is a well-established method for measurement of transport across epithelia of a wide variety of transport substrates (Clark, American Journal of Physiology.Gastrointestinal and liver Physiology, 2009, 296, G1151-1166). The Ussing half-chambers permit both apical and basolateral surfaces of an epithelium to be exposed to identical solutions, eliminating the chemical concentration gradient for movement of molecules across the epithelium. Under these symmetric solution conditions, the epithelium generates a transepithelial potential by activity of ion selective channels and active transport processes asymmetrically distributed in apical and basolateral membranes. The epithelium is maintained at a potential difference of 0 mV. The negative feedback circuit used for controlling the potential difference at 0 mV is called a voltage clamp circuit. Any current generated by the voltage clamp to maintain the transepithelial potential at 0 mV can arise only from biological active transport processes in the epithelial cells and the current (called short circuit current (ISC)) is a direct measure of these processes. Efflux of chloride to the apical surface is enabled by opening of apical CFTR channels, which allows water to move to the cellular surface and keep the tissue hydrated.

[3] = human liver microsomes, 120 min

In the case of `CC(C)(C)c1cc(C(C)(C)C)c(NC(=O)c2c[nH]c3ccccc3c2=O)cc1O` [ivacaftor, reference compound], the “Substrate remaining (%)” value ([1]; human liver microsomes, 0 min) is reported as 100%, the “Substrate loss (%)” value ([1]; human liver microsomes, 30 min) is reported as 30.4% and the “Substrate remaining (%)” value ([1]; human liver microsomes, 30 min) is reported as 69.6%. The “Substrate loss (%)” value ([1]; human liver microsomes, 60 min) was 49.1%, the “Substrate remaining (%)” value ([1]; human liver microsomes, 60 min) was 50.9% and the “Substrate loss (%)” value [1, 3] was 69.5%. For the same molecule, the “Substrate remaining (%)” value [1, 3] was 30.5%, the microsomal CLint at 1 uM ([1]; human liver microsomes) was 10.6 µL/min/mg and the half-life at 1 uM ([1]; human liver microsomes) was 1.09 h. It also gave a Fraction metabolized ([1]; incubated with human liver microsomes (text summary of Table 1)) of about 70% and a solubility [2] of 7.86 µM (≈ 3.09 µg/mL).
With `CC(C)(C)c1cc(C(C)(C)C)c(OCCOc2cc(NC(=O)c3c[nH]c4ccccc4c3=O)c(C(C)(C)C)cc2C(C)(C)C)cc1NC(=O)c1c[nH]c2ccccc2c1=O` [Compound of Formula I, N,N′-((ethane-1,2-diylbis(oxy))bis(2,4-di-tert-butyl-5,1-phenylene))bis(4-oxo-1,4-dihydroquinoline-3-carboxamide)] the “Metabolism back to ivacaftor or ivacaftor metabolites (in words)” value ([1]; human liver microsomes) was “not to substantially metabolize to ivacaftor, hydroxymethyl-ivacaftor or ivacaftor-carboxylate; also recorded: does not revert back to ivacaftor”, the “Substrate remaining (%)” value ([1]; human liver microsomes, 0 min) was 100% and the “Substrate loss (%)” value ([1]; human liver microsomes, 30 min) was “No loss”. For the same molecule, the “Substrate remaining (%)” value ([1]; human liver microsomes, 30 min) was 108%, the “Substrate loss (%)” value ([1]; human liver microsomes, 60 min) was “No loss” and the “Substrate remaining (%)” value ([1]; human liver microsomes, 60 min) was 107%. For the same molecule, the “Substrate loss (%)” value [1, 3] was “No loss”, the “Substrate remaining (%)” value [1, 3] was 120% and the microsomal CLint at 1 uM ([1]; human liver microsomes) was under 5.78 µL/min/mg. For the same molecule, the half-life at 1 uM ([1]; human liver microsomes) was over 2 h, the “Metabolic stability (in words)” value [1] was “metabolically stable” and the “Metabolic stability (in words)” value ([1]; listed as compound represented by Formula I) was “chemically and metabolically stable”. The “Potency relative to ivacaftor (times more potent)” value (F508del CFTR; based on solubility difference between the compound and ivacaftor) was “at least 15 times”, the “Potentiator response (in words)” value (F508del CFTR; homozygous F508del CFhBE monolayers, short circuit current, FIGS. 2A and 2B) was “potentiator response is similar to ivacaftor; also recorded: potentiated F508del CFTR” and the “Duration/stability of potentiator response (in words)” value (F508del CFTR; homozygous F508del CFhBE, FIGS. 2A and 2B) was “appears to remain stable longer than ivacftor”. The “Solubility relative to ivacaftor (times less soluble)” value [2] was 57.4 times and the solubility [2] was 0.137 µM.
